From patent publication US20090012148A1, “REDUCING CELLULAR CHOLESTEROL LEVELS AND/OR TREATING OR PREVENTING PHOSPHOLIPIDOSIS” (priority 2005, published 2009)

Tests used:
[1] = test system: CT60 cells; assay: Filipin binding assay, LSO compartment ratio (dose dependence, time course); type: cell-based, Chinese hamster
Text: Although the intensity assay was potentially useful, it seemed that additional information in the images could provide better discrimination of wild type vs. NPC cells. For this purpose, we took advantage of the spatial distribution of the filipin labeling of the LSOs, which cluster near the nucleus (FIG. 1B). We applied the second, higher threshold for this bright cluster. We then measured the total fluorescence intensity in the selected LSO objects (high threshold, FIG. 2C) divided by the total number of pixels in cells (low threshold, FIG. 2D).
Image analysis: Images of filipin-stained cells were analyzed using Metamorph Discovery-1 image analysis software. Two different image analysis assays were developed: (1) Average filipin intensity assay and (2) LSO compartment ratio assay. First, to correct for shading an image was created by averaging all of the images from a plate and smoothing the averaged image using a low pass filter. Then each pixel in an image was multiplied by the average intensity of the shading image, and the resulting pixel intensities were divided by the shading image on a pixel-by-pixel basis. Background was subtracted from each shading-corrected image by determining the 5th percentile intensity value of the image and subtracting this value from each pixel in the image. At the plating density used, all fields had at least 5% of the imaged areas that was cell-free. Next, two different thresholds were applied to the filipin images. For the first, a low threshold was set to include all areas occupied by cells. […] A second, higher threshold was set for brightly stained regions in CT60 and/or CT43 cells by selecting bright areas of filipin staining, with the intention of mainly identifying the LSOs in the perinuclear region of the cells. For the Average filipin intensity assay, using the low threshold alone, we measured total filipin intensity above the low threshold divided by the number of pixels above the lower threshold for each field. This gave an average filipin intensity per cell area. For the LSO compartment ratio we measured the total filipin intensity selectively in the region above the higher threshold divided by the number of pixels in the lower threshold. This gave a measure of the total intensity of LSO filipin per cell area.
Dose Dependence: Using the same methods as for the screening, compounds were tested at 10 μM, 3.33 μM, 1.11 μM, 370 nM and 123 nM in four wells each. Batches of selected compounds were purchased from Chemical Diversity, and 10 mM stocks in DMSO were made. A secondary stock plate of 2× concentration (20 μM, 6.66 μM, 2.22 μM, 740 nM and 246 nM) of compounds was prepared in screening medium S. To obtain the final concentrations, […] of this secondary stock was added to the cells in each well containing 30 μl of growth medium A supplemented with 10% FBS. The final DMSO concentration (0.2% v/v) was the same in all wells. Cells were plated at 650 cells per well in 30 μl of growth medium A supplemented with 10% FBS in Costar 384 well plates. After 20 h of incubation in the presence of the compounds, cells were washed with PBS, fixed with PFA and stained with filipin as described for the screening assay. Dose dependence determination of the initial 14 hit compounds from the primary library was done at least 5 times in CT60 cells and 3 times in CT43 cells in separate experiments. Dose dependence determination of the 7 hit compounds from the secondary library was carried out at least 3 times in CT60 cells and 2 times in CT43 cells in separate experiments.
The effects of the compounds were determined at 1.11, 3.33 and 10 μM concentrations after 4, 20 and 48 h using methods similar to the dose dependence. The CT60 cells were seeded in three 384 well plates at 600 cells/well in growth medium on day 1. To maintain the same density of cells at the final time point, compounds were added chronologically. […]

[2] = test system: CT60 cells; assay: Filipin binding assay, average filipin intensity and staining pattern; type: cell-based, Chinese hamster; settings: for Average Filipin Assay @ 10 μM dose Fraction of Control: compounds from secondary library
Procedure: We developed assays for correction of the NPC phenotype in CHO cell lines using filipin, which binds to non-esterified cholesterol and has been used to visualize the free cholesterol content in NPC cells. The initial screens were carried out in CT60 cells, which express a mutated hamster NPC1 protein and a gain of function mutation in SCAP (42). These cells cannot traffic LDL-derived cholesterol out of late endosomes, and large amounts of cholesterol accumulate in LSO compartments. FIGS. 1A-B show images of filipin staining in a control CHO cell line, TRVb1 (45) (FIG. 1A) and in CT60 cells (FIG. 1B). It can be seen that the CT60 cells show much more filipin staining than control cells and that the fluorescence in CT60 cells is concentrated in peri-nuclear organelles.
For screening, images were acquired using a Discovery-1 automated microscopy system with a 10× objective and corrected for background and shading as described in Methods. Two thresholds were set for filipin staining, a low threshold to include all cell areas, and a high threshold for the strong filipin staining in the peri-nuclear LSOs. The threshold values were set for each plate from analysis of 64 images in 32 wells of untreated CT60 cells. […] In developing the low threshold, we compared the outlines based on the thresholded cell images with transmitted light images, and the thresholds provided good agreement with the transmitted light cell boundaries.
As a simple measure of the intensity of filipin staining, we measured the filipin intensity per pixel above the threshold. The conditions of filipin labeling (time and concentration) were adjusted to optimize the discrimination between the CT60 cells and control TRVb1 cells. […] The quality of the assay for screening is expressed in terms of a statistical parameter Z′(46):
Using the above screening technique, we screened a library of 14,956 compounds added to cells for 16 hours at a final concentration of 10 μM, using a single well for each compound. Prior to application of the compounds, cells were grown in normal tissue culture medium containing 10% FBS, so the LSOs were filled with cholesterol (FIG. 1B). The cells were then imaged and analyzed using the average filipin intensity assay and the LSO compartment assay. In general, the two analyses identified similar compounds that reduced the filipin labeling.
Compound addition: The library compounds were formatted for screening in the Rockefeller University High Throughput Screening Facility. Cells were treated with the compounds from the chemical library one day after plating. We added […] of each compound (5 mM stock in DMSO) to 25 μl of screening Medium S composed of medium A supplemented with 1% FBS and 20 mM 4-(2-hydroxyethyl)-1-pipiperazine ethane sulphonic acid (HEPES) in Falcon 384-well V-bottomed polypropylene plates using a Packard MiniTrak™ robotic liquid handling system. To obtain ˜10 μM final concentration, 23 μl of the premixed compounds were dispensed into the plates containing cells and […] of culture medium A. For primary screening, 352 test compounds were added to each plate, and the remaining 32 wells were used as a control with only DMSO added. All plates were incubated with compounds for 16 h at 37° C. Plates were then washed three times with phosphate buffered saline pH 7.4 (PBS) using a Bio-Tek Elx405 plate washer (Bio-Tek Instruments Inc., Winooski, Vt.). For each wash cycle, […] of PBS was dispensed followed by aspiration with a residual volume of 16 μl per well. Finally, cells were fixed with 1.5% PFA in PBS for 20 min at room temperature, followed by 3 more washes with PBS.
Fluorescence labeling. To the fixed cells, filipin was added at a final concentration of 50 μg/ml in PBS for 45 m at room temperature to label free cholesterol. Cells were finally washed three times with PBS, and images were acquired immediately after labeling. […]

Compound | shape of dose-response curve ([1]; 123 nM to 10 μM) | Average filipin intensity Fraction of control ([2]; 10 μM, 14 hit compounds from primary library) | effect below solvent control at 123 nM [1] | Lowest Effective Dose (LSO Assay) (−3 SD @ 20 h) [1] | Average Filipin Assay @ 10 μM dose Fraction of Control [2] | decrease in the LSO compartment ratio after 4 hr treatment ([1]; 4 hr, 1.1, 3.3 and 10 μM tested)
CCOc1cccc2cc(-c3csc(Nc4cccc(C(F)(F)F)c4)n3)c(=O)oc12 [Compound 1-a-14] | unusual dose-response curve | 1.24 ± 0.04 Fraction of control |  |  |  | 
COc1ccccc1Nc1nc(Nc2ccccc2OC)nc(Nc2ccccc2OC)n1 [Compound 2-a-9] |  |  | 2 SD | 370 µM | 0.74 ± 0.01 Fraction of Control | 
FC(F)(F)COc1nc(NN=Cc2cccc(I)c2)nc(N(c2ccccc2)c2ccccc2)n1 [Compound 2-a-12] |  |  | 2 SD | 370 µM | 0.87 ± 0.01 Fraction of Control | 
C=CCN1C(=O)C(=Cc2cc(C)n(-c3ccccc3)c2C)C(C(=O)OC)=C1C [Compound 2-a-15] |  |  |  | 3.33 µM | 0.79 ± 0.01 Fraction of Control | 
O=[N+]([O-])c1cccc(C=NNc2nc(Nc3cccc4ccccc34)nc(N(c3ccccc3)c3ccccc3)n2)c1 [Compound 2-a-13] |  |  |  | 370 µM | 0.75 ± 0.02 Fraction of Control | 
CCN(CC)c1ccc(C=C2SC(=S)N(c3ccc(OC)cc3)C2=O)cc1 [Compound 2-a-3] |  |  |  | 3.33 µM | 0.75 ± 0.01 Fraction of Control | more than 3 SD
